For the assay, the system named is primary rat mixed cortical cells. Nature of the assay: In vitro myelination assay (MBP positive myelin strands, fold myelin pixels above background). Type of assay: cell-based. Particulars: Rattus norvegicus; for fold induction at 1 µM: 1.0 μM compound; for fold induction at 10 µM: 10.0 μM compound. In a few lines: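 Read-out is total MBP-positive myelin strand pixels per well, detected by custom ridge-tracing software and reported as fold over untreated baseline. Primary P1 rat mixed cortical cells received compound (1.0 or 10.0 μM) for 14 days, with medium half-replaced on days 6 and 10. Standard deviation was taken across all replicates.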

The mark [1] stands for this setting: relative to baseline of no added compound, read-out: Fold myelin pixels above background, 1.0 μM.
[2] abbreviates: relative to baseline of no added compound, read-out: Fold myelin pixels above background, 10.0 μM.
Setting [3] is: relative to baseline of no added compound, read-out: Fold myelin pixels above background.
Setting [4] is: read-out: Fold myelin pixels above background relative to baseline of no added compound.

Molecules are shown by their SMILES. Read-outs that look alike come from different tables or passages of the source.

For `Cc1cc(F)cc(-n2cnc(Nc3cc(C4CC4)cc(N4CCN(C5COC5)CC4)c3)n2)c1` [Compound 73, N-[3-cyclopropyl-5-[4-(oxetan-3-yl)piperazin-1-yl]phenyl]-1-(3-fluoro-5-methyl-phenyl)-1,2,4-triazol-3-amine], the fold induction at 1 µM under setting [1] was 100 to 1000. Also, the fold induction at 10 µM under setting [2] is at most 1. On to `Fc1ccc(-n2cnc(Nc3cc(C4CC4)nc(N4CC[C@H](F)C4)c3)n2)cc1F` [Compound 492, 2-cyclopropyl-N-[1-(3,4-difluorophenyl)-1,2,4-triazol-3-yl]-6-[(3S)-3-fluoropyrrolidin-1-yl]pyridin-4-amine], for which, under setting [3], the fold induction at 1 µM lay within 1000 to 10000 and the fold induction at 10 µM lay in the range of 1000 to 10000.

Take `Fc1cc(Nc2ncn(-c3ccc(F)cc3F)n2)cc(N2CCCOCC2)c1` [Compound 343, 1-(2,4-difluorophenyl)-N-[3-fluoro-5-(1,4-oxazepan-4-yl)phenyl]-1,2,4-triazol-3-amine]: the fold induction at 1 µM under setting [1] is at most 1. Under setting [2], the fold induction at 10 µM lay within 100 to 1000. With `Cc1cc(Nc2ncn(-c3cnccn3)n2)cc(N2CCCN(C3COC3)CC2)c1` [Compound 818, N-[3-methyl-5-[4-(oxetan-3-yl)-1,4-diazepan-1-yl]phenyl]-1-pyrazin-2-yl-1,2,4-triazol-3-amine], under setting [4], the fold induction at 1 µM was in the range of 10 to 100 and the fold induction at 10 µM is 100 to 1000.

Consider `Cc1cc(Nc2ncn(-c3ccccc3)n2)cc(C2COC2)c1` [Compound 363, N-[3-methyl-5-(oxetan-3-yl)phenyl]-1-phenyl-1,2,4-triazol-3-amine], for which the fold induction at 1 µM under setting [1] was in the range of 1000 to 10000. In addition, under setting [2], the fold induction at 10 µM lay within 100 to 1000. As to `Cc1cc(Nc2ncn(-c3cc(F)cc(F)c3)n2)cc(C2CCCN(C3CC3)C2)c1` (stereo not shown) [Compound 466, N-[3-(1-cyclopropyl-3-piperidyl)-5-methyl-phenyl]-1-(3,5-difluorophenyl)-1,2,4-triazol-3-amine], under setting [3], the fold induction at 1 µM lay within 100 to 1000 and the fold induction at 10 µM is at most 1. For the molecule `Cc1cc(Nc2ncn(-c3ccccc3)n2)cc(N2CCCN(C3CC3)CC2)c1` [Compound 337, N-[3-(4-cyclopropyl-1,4-diazepan-1-yl)-5-methyl-phenyl]-1-phenyl-1,2,4-triazol-3-amine], under setting [1], the fold induction at 1 µM was 100 to 1000. Also, under setting [2], the fold induction at 10 µM is at most 1.

As for `Cc1cc(CN2CCN(C3COC3)CC2)cc(Nc2ncn(-c3cnccn3)n2)c1` [Compound 583, N-[3-methyl-5-[[4-(oxetan-3-yl)piperazin-1-yl]methyl]phenyl]-1-pyrazin-2-yl-1,2,4-triazol-3-amine], under setting [3], the fold induction at 1 µM was 10 to 100 and the fold induction at 10 µM was in the range of 10 to 100. `CCCc1cc(Nc2ncn(-c3ccc(F)c(F)c3)n2)cc(N2CCN(C3COC3)CC2)c1` [Compound 559, 1-(3,4-difluorophenyl)-N-[3-[4-(oxetan-3-yl)piperazin-1-yl]-5-propyl-phenyl]-1,2,4-triazol-3-amine]: under setting [3], the fold induction at 1 µM lay within 100 to 1000 and the fold induction at 10 µM fell in the range of 10 to 100. Take `COc1ccc(-n2cnc(Nc3cc(C)cc(N4CCN(C5COC5)CC4)c3)n2)cc1F` [Compound 624, 1-(3-fluoro-4-methoxy-phenyl)-N-[3-methyl-5-[4-(oxetan-3-yl)piperazin-1-yl]phenyl]-1,2,4-triazol-3-amine]: under setting [3], the fold induction at 1 µM lay in the range of 10 to 100 and the fold induction at 10 µM was at most 1. With `Cc1cc(Nc2ncn(-c3cccc(F)c3)n2)cc(N2CCCC2)c1` [Compound 272, 1-(3-fluorophenyl)-N-(3-methyl-5-pyrrolidin-1-yl-phenyl)-1,2,4-triazol-3-amine], under setting [1], the fold induction at 1 µM was 10 to 100. For the same molecule, the fold induction at 10 µM under setting [2] was at most 1. On the same counts, the results for `Cc1cc(Nc2ncn(-c3cc(F)cc(F)c3)n2)cc(N2CCCC(N3CCCC3=O)C2)c1` (stereo not shown) [Compound 114, 1-[1-[3-[[1-(3,5-difluorophenyl)-1,2,4-triazol-3-yl]amino]-5-methyl-phenyl]-3-piperidyl]pyrrolidin-2-one] are 10 to 100 and 10 to 100. For the molecule `[2H]C1([2H])N(CC(F)F)C([2H])([2H])C([2H])([2H])N(c2cc(C)cc(Nc3ncn(-c4cc(F)cc(F)c4)n3)c2)C1([2H])[2H]` [Compound 935, 1-(3,5-difluorophenyl)-N-[3-methyl-5-[2,2,3,3,5,5,6,6-octadeuterio-4-(2,2-difluoroethyl)piperazin-1-yl]phenyl]-1,2,4-triazol-3-amine], the fold induction at 1 µM under setting [4] was in the range of 10 to 100.

In the case of `Cc1cc(Nc2ncn(-c3cc(F)cc(F)c3)n2)cc(NC2CCN(C3CCC3)CC2)c1` [Compound 1070, N1-(1-cyclobutyl-4-piperidyl)-N3-[1-(3,5-difluorophenyl)-1,2,4-triazol-3-yl]-5-methyl-benzene-1,3-diamine], under setting [4], the fold induction at 1 µM is 10 to 100 and the fold induction at 10 µM was at most 1. For `Fc1cc(F)cc(-n2cnc(Nc3cc(C(F)(F)F)cc(N4CCN([C@@H]5CCOC5)CC4)n3)n2)c1` (single isomer, unassigned) [Compound 672], under setting [3], the fold induction at 1 µM lay in the range of 1 to 10 and the fold induction at 10 µM was 1 to 10. For the molecule `CCc1cc(Nc2ncn(-c3cc(C)ncn3)n2)cc(N2CCN(C3COC3)CC2)c1` [Compound 58, N-[3-ethyl-5-[4-(oxetan-3-yl)piperazin-1-yl]phenyl]-1-(6-methylpyrimidin-4-yl)-1,2,4-triazol-3-amine], the fold induction at 1 µM under setting [1] was in the range of 100 to 1000. Besides, under setting [2], the fold induction at 10 µM was in the range of 100 to 1000.

Turning to `Cc1cc(Nc2ncn(-c3cc(F)cc(F)c3)n2)cc(N2CCN(C3CCOCC3)CC2)c1` [Compound 243, 1-(3,5-difluorophenyl)-N-[3-methyl-5-(4-tetrahydropyran-4-ylpiperazin-1-yl)phenyl]-1,2,4-triazol-3-amine], the fold induction at 1 µM under setting [1] is 100 to 1000. For the same molecule, the fold induction at 10 µM under setting [2] is at most 1. Consider `Cc1cc(Nc2ncn(-c3cc(F)cc(F)c3)n2)nc(N2CCOCC2)c1` [Compound 560, N-[1-(3,5-difluorophenyl)-1,2,4-triazol-3-yl]-4-methyl-6-morpholino-pyridin-2-amine], for which, under setting [3], the fold induction at 1 µM fell in the range of 10 to 100 and the fold induction at 10 µM lay within 100 to 1000. For the molecule `CC(=O)N1CCC(c2cc(C)cc(Nc3ncn(-c4cc(F)cc(F)c4)n3)c2)CC1` [Compound 90, 1-[4-[3-[[1-(3,5-difluorophenyl)-1,2,4-triazol-3-yl]amino]-5-methyl-phenyl]-1-piperidyl]ethanone], under setting [1], the fold induction at 1 µM was in the range of 100 to 1000. Besides, the fold induction at 10 µM under setting [2] fell in the range of 1 to 10. In the case of `Cc1cc(Nc2ncn(-c3ccc(C#N)cc3)n2)cc(N2CCCC2)c1` [Compound 186, 4-[3-(3-methyl-5-pyrrolidin-1-yl-anilino)-1,2,4-triazol-1-yl]benzonitrile], under setting [1], the fold induction at 1 µM is 10 to 100. Besides, under setting [2], the fold induction at 10 µM lay in the range of 10 to 100.

On to `Cc1cc(Nc2ncn(-c3cc(F)cc(F)c3)n2)cc(C2CCN(C3COC3)CC2(F)F)c1` (stereo not shown) [Compound 235, N-[3-[3,3-difluoro-1-(oxetan-3-yl)-4-piperidyl]-5-methyl-phenyl]-1-(3,5-difluorophenyl)-1,2,4-triazol-3-amine], for which the fold induction at 1 µM under setting [1] fell in the range of 10 to 100. Besides, under setting [2], the fold induction at 10 µM is 10 to 100. Regarding `FC(F)(F)c1cc(Nc2ncn(-c3ccccn3)n2)nc(N2CCN(C3COC3)CC2)c1` [Compound 548, 6-[4-(oxetan-3-yl)piperazin-1-yl]-N-[1-(2-pyridyl)-1,2,4-triazol-3-yl]-4-(trifluoromethyl)pyridin-2-amine], under setting [3], the fold induction at 1 µM fell in the range of 1 to 10 and the fold induction at 10 µM lay within 1 to 10.

Turning to `Cc1cc(Nc2ncn(-c3cc(F)cc(F)c3)n2)cc(N2CCOC(COCC3CC3)C2)c1` (stereo not shown) [Compound 1087, N-[3-[2-(cyclopropylmethoxymethyl)morpholin-4-yl]-5-methyl-phenyl]-1-(3,5-difluorophenyl)-1,2,4-triazol-3-amine], under setting [4], the fold induction at 1 µM lay within 1 to 10 and the fold induction at 10 µM lay within 1 to 10.

As to `Cc1cc(Nc2ncn(-c3cc(F)cc(F)c3)n2)cc([C@]2(C)CN(C3COC3)CCO2)c1` (single isomer, unassigned) [Compound 750], under setting [3], the fold induction at 1 µM lay within 1 to 10 and the fold induction at 10 µM was 10 to 100. `Cc1cc(Nc2ncn(-c3ccccn3)n2)cc(N2CCN(C3COC3)CC2)c1` [Compound 104, N-[3-methyl-5-[4-(oxetan-3-yl)piperazin-1-yl]phenyl]-1-(2-pyridyl)-1,2,4-triazol-3-amine]: under setting [1], the fold induction at 1 µM lay within 10 to 100. In addition, the fold induction at 10 µM under setting [2] is 100 to 1000.

Regarding `Cc1cc(Nc2ncn(-c3cc(F)cc(F)c3)n2)cc(N2CC(C3CCOC3)C2)c1` (stereo not shown) [Compound 890, 1-(3,5-difluorophenyl)-N-[3-methyl-5-(3-tetrahydrofuran-3-ylazetidin-1-yl)phenyl]-1,2,4-triazol-3-amine], under setting [4], the fold induction at 1 µM lay within 1 to 10 and the fold induction at 10 µM lay within 10 to 100. Consider `C1=C(c2cc(Nc3ncn(-c4ccccc4)n3)cc(C3=CCOC3)c2)COC1` [Compound 234, N-[3,5-bis(2,5-dihydrofuran-3-yl)phenyl]-1-phenyl-1,2,4-triazol-3-amine], for which the fold induction at 1 µM under setting [1] lay within 1 to 10. Besides, under setting [2], the fold induction at 10 µM was 100 to 1000.

Turning to `Cc1cc(Nc2ncn(-c3cc(F)cc(F)c3)n2)cc(N2CCC3OCCC3C2)c1` (stereo not shown) [Compound 528, N-[3-(3,3a,4,6,7,7a-hexahydro-2H-furo[3,2-c]pyridin-5-yl)-5-methyl-phenyl]-1-(3,5-difluorophenyl)-1,2,4-triazol-3-amine], under setting [3], the fold induction at 1 µM lay within 100 to 1000 and the fold induction at 10 µM lay in the range of 100 to 1000.

(Values after patent US10766869B2, “Triazoles for the treatment of demyelinating dieases” (Vertex Pharmaceuticals Incorporated, priority 2015, dated 2020).)
